Results from patent US20250059205A1, “Heterocyclic Compounds and Methods of Use” (AMGEN INC., priority 2021, published 2025).

Key:
[1] = biological target: His-tagged KRAS G12D protein (Homo sapiens, UniProt P01116, G12D); experiment: KRAS G12D TR-FRET Assay; assay type: binding
[2] = tested on: Phosphorylation of ERK1/2 in A-427 cells; experiment: Phospho-ERK1/2 MSD Assay (A-427 cells); assay type: cell-based; details: Homo sapiens, A-427, 2 h, 2 h treatment, read-out: p-ERK (A427 cells) IC50
In short: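 ERK1/2 phosphorylation measured by Meso Scale whole-cell lysate assay after A-427 cells were exposed to a titration of compound for 2 h at 37 °C.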

[3] = tested on: Phosphorylation of ERK1/2 in AsPC-1 cells; experiment: Phospho-ERK1/2 MSD Assay (AsPC-1 cells); assay type: cell-based; details: Homo sapiens, ASPC1, 2 h, 2 hours treatment, read-out: p-ERK (AsPC-1 cells) IC50
In short: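 Read-out: MSD electrochemiluminescent detection of phosphorylated ERK1/2 in whole-cell lysates, fitted to a 4-parameter logistic curve for IC50. Prior to lysis, AsPC-1 cells (25,000 per well) received a 2 h compound dose-response at 37 °C.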

[4] = biological target: GDP-bound KRAS protein (aa 1-169), containing both G12D and C118A amino acid substitutions (Homo sapiens, UniProt P01116, C118A/G12D); experiment: KRAS G12D Coupled Nucleotide Exchange Assay; assay type: biochemical; details: 2 h compound pre-incubation
Chain of GDP-bound KRAS protein (aa 1-169), containing both G12D and C118A amino acid substitutions (P01116 1-169 isoform P01116-2 G12D/C118A): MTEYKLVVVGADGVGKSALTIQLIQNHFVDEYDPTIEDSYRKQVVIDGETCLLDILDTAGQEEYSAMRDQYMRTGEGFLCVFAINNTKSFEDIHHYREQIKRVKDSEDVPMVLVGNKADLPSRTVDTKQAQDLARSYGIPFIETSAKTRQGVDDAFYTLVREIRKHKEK
Experimental: Following compound pre-incubation, purified SOS protein (aa 564-1049) and GTP (Roche 10106399001) were added to the assay wells and incubated for an additional 30 min. […] The assay plates were then read on a PerkinElmer EnVision Multilabel Reader, using AlphaScreen® technology, and data were analyzed using a 4-parameter logistic model to calculate IC50 values.

Chain of His-tagged KRAS G12D protein (P01116 1-188 isoform P01116-2 G12D): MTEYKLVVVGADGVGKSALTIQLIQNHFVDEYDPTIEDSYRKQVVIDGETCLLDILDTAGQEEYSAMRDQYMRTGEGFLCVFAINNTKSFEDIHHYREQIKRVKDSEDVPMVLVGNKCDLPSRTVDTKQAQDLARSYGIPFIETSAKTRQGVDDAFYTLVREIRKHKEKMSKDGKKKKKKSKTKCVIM

SMILES	IC50 [1]	IC50 [2]	IC50 [3]	Avg 2 h Coupled Exchange IC50 [4]
Fc1c(-c2cccc(Cl)c2C(F)(F)F)ccc2c(N3C[C@H]4CC[C@@H](C3)N4)nc(OC[C@@]34CCCN3C[C@H](F)C4)nc12 [Example 156, 4-((1R,5S)-3,8-diazabicyclo[3.2.1]octan-3-yl)-7-(3-chloro-2-(trifluoromethyl)phenyl)-8-fluoro-2-(((2R,7aS)-2-fluorotetrahydro-1H-pyrrolizin-7a(5H)-yl)methoxy) quinazoline]	7 nM	1180 nM	881 nM	3 nM
Oc1cc(-c2c(F)cc3c(N4C[C@@H]5CC[C@H]4CN5)nc(OC[C@@]45CCCN4C[C@H](F)C5)nc3c2F)c2c(F)c(F)ccc2c1 [Example 157, 4-(4-((1S,4S)-2,5-diazabicyclo[2.2.2]octan-2-yl)-6,8-difluoro-2-(((2R,7aS)-2-fluorotetrahydro-1H-pyrrolizin-7a(5H)-yl)methoxy)quinazolin-7-yl)-5,6-difluoronaphthalen-2-ol]	4 nM	9 nM	46 nM	4 nM
CCc1c(F)ccc2cc(O)cc(-c3c(F)cc4c(N5[C@@H]6CC[C@H]5CNC6)nc(OC[C@@H]5C[C@@H](F)CN5C)nc4c3F)c12 [Example 158, 4-(4-((1R,5S)-3,8-diazabicyclo[3.2.1]octan-8-yl)-6,8-difluoro-2-(((2S,4R)-4-fluoro-1-methylpyrrolidin-2-yl)methoxy)quinazolin-7-yl)-5-ethyl-6-fluoronaphthalen-2-ol]	7 nM	228 nM	511 nM	4 nM
Oc1cc(-c2c(F)cc3c(N4C[C@H]5CC[C@@H](C4)N5)nc(OC[C@@]45CCCN4C[C@H](F)C5)nc3c2F)c2c(F)cccc2c1 [Example 159, 4-(4-((1R,5S)-3,8-diazabicyclo[3.2.1]octan-3-yl)-6,8-difluoro-2-(((2R,7aS)-2-fluorotetrahydro-1H-pyrrolizin-7a(5H)-yl)methoxy)quinazolin-7-yl)-5-fluoronaphthalen-2-ol]	3 nM	13 nM	77 nM	5 nM
CCc1cccc2cc(O)cc(-c3ccc4c(N5[C@@H]6CC[C@H]5CNC6)nc(OC[C@@]56CCCN5C[C@H](F)C6)nc4c3C)c12 [Example 160, 4-(4-((1R,5S)-3,8-diazabicyclo[3.2.1]octan-8-yl)-2-(((2R,7aS)-2-fluorotetrahydro-1H-pyrrolizin-7a(5H)-yl)methoxy)-8-methylquinazolin-7-yl)-5-ethylnaphthalen-2-ol]	5 nM	410 nM	754 nM	6 nM
CCc1c(F)ccc2cc(O)cc(-c3ccc4c(N5[C@@H]6CC[C@H]5CNC6)nc(OC[C@@]56CCCN5C[C@H](F)C6)nc4c3C)c12 [Example 161, 4-(4-((1R,5S)-3,8-diazabicyclo[3.2.1]octan-8-yl)-2-(((2R,7aS)-2-fluorotetrahydro-1H-pyrrolizin-7a(5H)-yl)methoxy)-8-methylquinazolin-7-yl)-5-ethyl-6-fluoronaphthalen-2-ol]	75 nM	10000 nM	9750 nM	79 nM
Cc1ccc2cnn(C)c2c1-c1c(F)cc2c(N3C[C@H]4CC[C@@H](C3)N4)nc(OC[C@@]34CCCN3C[C@H](F)C4)nc2c1F [Example 164, 4-((1R,5S)-3,8-diazabicyclo[3.2.1]octan-3-yl)-7-(1,6-dimethyl-1H-indazol-7-yl)-6,8-difluoro-2-(((2R,7aS)-2-fluorotetrahydro-1H-pyrrolizin-7a(5H)-yl)methoxy) quinazoline]	7 nM	862 nM	725 nM	6 nM
Cc1c(Cl)cc2cn[nH]c2c1-c1ccc2c(N3C[C@H]4CC[C@@H](C3)N4)nc(OC[C@@]34CCCN3C[C@H](F)C4)nc2c1F [Example 165, 4-((1R,5S)-3,8-diazabicyclo[3.2.1]octan-3-yl)-7-(5-chloro-6-methyl-1H-indazol-7-yl)-8-fluoro-2-(((2R,7aS)-2-fluorotetrahydro-1H-pyrrolizin-7a(5H)-yl)methoxy) quinazoline]	27 nM	4430 nM	3280 nM	11 nM
Cc1c(-c2cc(O)cc3ccc(F)c(F)c23)ccc2c(N3C[C@@H]4CC[C@H]3CN4)nc(OC[C@@]34CCCN3C[C@H](F)C4)nc12 [Example 166, 4-(4-((1S,4S)-2,5-diazabicyclo[2.2.2]octan-2-yl)-2-(((2R,7aS)-2-fluorotetrahydro-1H-pyrrolizin-7a(5H)-yl)methoxy)-8-methylquinazolin-7-yl)-5,6-difluoronaphthalen-2-ol]	94 nM	4200 nM	1530 nM	82 nM
CCc1cccc2cc(O)cc(-c3ccc4c(N5C[C@H]6CC[C@@H](C5)N6)nc(OC[C@@]56CCCN5C[C@H](F)C6)nc4c3C)c12 [Example 168, 4-(4-((1R,5S)-3,8-diazabicyclo[3.2.1]octan-3-yl)-2-(((2R,7aS)-2-fluorotetrahydro-1H-pyrrolizin-7a(5H)-yl)methoxy)-8-methylquinazolin-7-yl)-5-ethylnaphthalen-2-ol]	4 nM	78 nM	243 nM	8 nM
CCc1cccc2cc(O)cc(-c3ccc4c(N5C[C@H]6CC[C@@H](C5)N6)nc(OC[C@@]56CCCN5C[C@H](F)C6)nc4c3F)c12 [Example 169, 4-(4-((1R,5S)-3,8-diazabicyclo[3.2.1]octan-3-yl)-8-fluoro-2-(((2R,7aS)-2-fluorotetrahydro-1H-pyrrolizin-7a(5H)-yl)methoxy)quinazolin-7-yl)-5-ethylnaphthalen-2-ol]	5 nM	9 nM	72 nM	5 nM
CCc1cccc2cc(O)cc(-c3c(Cl)cc4c(N5C[C@H]6CC[C@@H](C5)N6)nc(OC[C@@]56CCCN5C[C@H](F)C6)nc4c3F)c12 [Example 170, 4-(4-((1R,5S)-3,8-diazabicyclo[3.2.1]octan-3-yl)-6-chloro-8-fluoro-2-(((2R,7aS)-2-fluorotetrahydro-1H-pyrrolizin-7a(5H)-yl)methoxy)quinazolin-7-yl)-5-ethylnaphthalen-2-ol]	3 nM	86 nM	126 nM	3 nM
CCc1cccc2cc(O)cc(-c3cc4nc(OC[C@@]56CCCN5C[C@H](F)C6)nc(N5C[C@H]6CC[C@@H](C5)N6)c4cc3F)c12 [Example 171, 4-(4-((1R,5S)-3,8-diazabicyclo[3.2.1]octan-3-yl)-6-fluoro-2-(((2R,7aS)-2-fluorotetrahydro-1H-pyrrolizin-7a(5H)-yl)methoxy)quinazolin-7-yl)-5-ethylnaphthalen-2-ol]	6 nM	42 nM	169 nM	3 nM
CCc1c(F)ccc2cc(O)cc(-c3c(F)cc4c(N5[C@@H]6CCC[C@H]5CNC6)nc(OC[C@@]56CCCN5C[C@H](F)C6)nc4c3F)c12 [Example 172, 4-(4-((1R,5S)-3,9-diazabicyclo[3.3.1]nonan-9-yl)-6,8-difluoro-2-(((2R,7aS)-2-fluorotetrahydro-1H-pyrrolizin-7a(5H)-yl)methoxy)quinazolin-7-yl)-5-ethyl-6-fluoronaphthalen-2-ol]	85 nM	5430 nM	2920 nM	36 nM
Oc1cc(-c2cc3nc(OC[C@@]45CCCN4C[C@H](F)C5)nc(N4C[C@@H]5CC[C@H]4CN5)c3cc2F)c2c(F)c(F)ccc2c1 [Example 173, 4-(4-((1S,4S)-2,5-diazabicyclo[2.2.2]octan-2-yl)-6-fluoro-2-(((2R,7aS)-2-fluorotetrahydro-1H-pyrrolizin-7a(5H)-yl)methoxy)quinazolin-7-yl)-5,6-difluoronaphthalen-2-ol]	2 nM	153 nM	366 nM	3 nM
CCc1c(F)ccc2cc(O)cc(-c3cc4nc(OC[C@@]56CCCN5C[C@H](F)C6)nc(N5C[C@@H]6CC[C@H]5CN6)c4cc3F)c12 [Example 174, 4-(4-((1S,4S)-2,5-diazabicyclo[2.2.2]octan-2-yl)-6-fluoro-2-(((2R,7aS)-2-fluorotetrahydro-1H-pyrrolizin-7a(5H)-yl)methoxy)quinazolin-7-yl)-5-ethyl-6-fluoronaphthalen-2-ol]	4 nM	57 nM	64 nM	5 nM
C#Cc1cccc2cc(O)cc(-c3c(F)cc4c(N5C[C@@H]6CC[C@H]5CN6)nc(OC[C@@]56CCCN5C[C@H](F)C6)nc4c3F)c12 [Example 180, 4-(4-((1S,4S)-2,5-diazabicyclo[2.2.2]octan-2-yl)-6,8-difluoro-2-(((2R,7aS)-2-fluorotetrahydro-1H-pyrrolizin-7a(5H)-yl)methoxy)quinazolin-7-yl)-5-ethynylnaphthalen-2-ol]	3 nM	3 nM	18 nM	4 nM
